# Measurements: patent US9289411B2, “Anti-HCV agent” (NATIONAL UNIVERSITY CORPORATION OKAYAMA UNIVERSITY, priority 2011, dated 2016)
# Tested on: OR6 cells
# Experiment: Cytotoxic effect, WST-1 cell proliferation assay in OR6 cells
# Settings: OR6 cells, 72 hours, WST-1
# Text: Assay systems using OR6 cells (HCV-O strain), 1B-4R cells (HCV-1B-4 strain), and AH1R cells (HCV-AH1R strain) as HuH-7 cell-derived full-length HCV-RNA-replicating cells, and ORL8 cells (HCV-O strain), ORL11 cells (HCV-O strain), 1B-4RL cells (HCV-1B-4 strain), and KAH5RL cells (HCV-KAH5 strain) as Li23 cell-derived full-length HCV-RNA-replicating cells were used for the quantitative analysis of anti-HCV activity and evaluation of a cytotoxic effect in the present invention. The three cell lines, i.e., the 1B-4R cells, the 1B-4RL cells, and the KAH5RL cells have been disclosed in WO 2010/026965 A1. The AH1R cells may be produced with reference to Mori K et al., BBRC, 371:104-109, 2008 and WO 2010/026965 A1. In addition, all the HCV strains belong to genotype 1b.
# In the measurement of the renilla luciferase activity and the measurement by the WST-1 method, experiments were performed in three wells independent of each other, and their means and standard deviation were calculated.
# After 24 hours, N-89 was added so as to achieve concentrations of 20 μM, a 2-fold dilution series from 20 μM (10, 5, 2.5, 1.3, 0.63, and 0.31 μM), and 0, or N-251 was added so as to achieve concentrations of 10 μM, a 2-fold dilution series from 10 μM (5, 2.5, 1.3, 0.63, 0.31, and 0.16 μM), and 0.
# The cytotoxic effect of artemisinin was examined using OR6 and ORL8 cells and the CC50 values were calculated. […]
smiles,measurement,value
"OCCCCCCC1COOC2(CCCCCCCCCCC2)OOC1 [N-251, 6-(1,2,6,7-tetraoxaspiro[7,11]nonadec-4-yl)]",CC50,3000 nM
